Columns and labels:
Ba/F3_KRAS^G12D cells = Ba/F3_KRAS^G12D cells (Homo sapiens, UniProt P01116, G12D, cells depend on it); assay: Ba/F3 KRAS^G12D cell proliferation assay (cell-titer Glo); assay type: cell-based; settings: cell growth inhibition, treated with the compounds for 3 days, read-out: BaF3_KRAS^G12D IC50
Protocol: Cells were seeded at a density of 5×10^3 per well into 96-well plate and incubated overnight. Serial diluted compounds were added to each well. Cells were treated with the compounds for 3 days, after which cell-titer Glo reagent (Promega #G7572) was used to assess cell proliferation. The luminescence signal was then collected on Tecan Spark plate reader. […] Cell growth inhibition of IC50 is calculated with the equation of Y=Bottom+(Top−Bottom)/(1+10^((LogIC50−X)*HillSlope))

[1] = target: recombinant human KRAS^G12D protein (Homo sapiens, UniProt P01116, G12D); assay: Temperature-dependent Fluorescence (TdF) KRAS^G12D protein binding assay; settings: 6 μM KRAS^G12D Protein, 10 μM compound, Sypro Orange; Kd calculated from fluorescent shift
Chain of recombinant human KRAS^G12D protein (P01116 1-188 isoform P01116-2 G12D): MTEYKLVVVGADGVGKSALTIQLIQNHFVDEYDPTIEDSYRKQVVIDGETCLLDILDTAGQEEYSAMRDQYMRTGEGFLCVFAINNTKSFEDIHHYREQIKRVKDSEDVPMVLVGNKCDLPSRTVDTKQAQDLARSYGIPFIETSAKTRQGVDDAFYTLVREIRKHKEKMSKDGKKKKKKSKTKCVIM
Protocol: The TdF assay was conducted in the 96-well-based real-time fluorescence plate reader (ABI 7500 or Roche LightCycler 480). Fluorescent dye Sypro Orange (Sigma) was used to monitor the protein folding-unfolding transition. Protein-compound binding was gauged by the shift in the unfolding transition temperature (ΔTm) acquired with and without compound. […] The sample plate was heated from 30° C. to 95° C. with a thermal ramping rate of […], taking a fluorescence reading every 0.4° C. using a CY3 channel matching the excitation and emission wavelengths of Sypro Orange (λ ex 470 nm; λ em 570 nm). Binding affinity (Kd value) was calculated based on the degree of fluorescent shift of the protein with and without compound.

Chain of Ba/F3_KRAS^G12D cells (P01116 whole entry G12D): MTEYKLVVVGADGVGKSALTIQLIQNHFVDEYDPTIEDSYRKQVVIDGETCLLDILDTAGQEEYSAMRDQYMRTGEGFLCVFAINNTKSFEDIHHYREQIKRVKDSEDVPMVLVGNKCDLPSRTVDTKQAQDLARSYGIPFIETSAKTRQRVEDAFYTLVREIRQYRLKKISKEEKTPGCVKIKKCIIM

Row | GI50 (Ba/F3_KRAS^G12D cells) [nM] | Kd [1] [nM] | SMILES
1 | 500 to 5000 | ≤ 500 | Oc1cc(-c2ncc3c(N4CC5CCC(C4)N5)cc(OC[C@@]45CCCN4C[C@H](F)C5)nc3c2F)c2c(Cl)cccc2c1 [Compound 78]
2 | 500 to 5000 | > 5000 | Cc1cc2c(N3CC4CCC(C3)N4)nc(OCC34CCCN3CCC4)nc2c(=O)n1-c1cccc2ccccc12 [Compound 107]
3 | > 5000 | ≤ 500 | Oc1cc(-c2ncc3c(N4CC5CCC(C4)N5)nc(OC[C@@]45CCCN4C[C@H](F)C5)c(Cl)c3n2)c2c(Cl)c(F)ccc2c1 [Compound 75]
4 | < 500 | ≤ 500 | C#Cc1c(F)ccc2cc(N)cc(-c3nc(OC)c4c(N5CC6CCC(C5)N6)nc(OC[C@@]56CCCN5C[C@H](F)C6)nc4c3F)c12 [Compound 163]
5 | 500 to 5000 | ≤ 500 | CCc1cccc2cc(O)cc(-c3cc4nc(OC[C@@]56CCCN5C[C@H](F)C6)nc(N5CC6CCC(C5)N6)c4c(C)n3)c12 [Compound 121]
6 | 500 to 5000 | > 5000 | O=c1cc2c(N3CC4CCC(C3)N4)nc(OCC34CCCN3CCC4)nc2cn1-c1cccc2ccccc12 [Compound 110]
7 | < 500 | ≤ 500 | Cc1nc(-c2cc(O)cc3cccc(Cl)c23)c(F)c2nc(OC[C@@]34CCCN3C[C@H](F)C4)nc(N3CC4CCC(C3)N4)c12 [Compound 89]
8 | 500 to 5000 | > 5000 | CCN1CCN(c2nc(OCC34CCCN3CCC4)nc3c(F)c(-c4cc(O)cc5cccc(Cl)c45)ncc23)CC1 [Compound 42]
9 | 500 to 5000 | > 5000 | c1ccc2c(-c3ncc4c(N5CCNCC5)nc(OCC56CCCN5CCC6)cc4n3)cccc2c1 [Compound 18]
10 | > 5000 | > 5000 | Oc1cc(-c2cc3nc(N4CC5CCC(C4)N5)ccc3c(OC[C@@]34CCCN3C[C@H](F)C4)n2)c2ccccc2c1 [Compound 104]
11 | 500 to 5000 | ≤ 500 | Oc1cc(-c2cc3nc(OC[C@@]45CCCN4C[C@H](F)C5)nc(N4CC5CCC(C4)N5)c3nn2)c2c(Cl)cccc2c1 [Compound 94]
12 | < 500 | ≤ 500 | Oc1cc(-c2ncc3c(N4CC5CCC(C4)N5)nc(OC[C@@]45CCCN4C[C@H](F)C5)nc3c2F)c2c(Cl)cccc2c1 [Compound 112]
13 | > 5000 | > 5000 | Nc1cccc(F)c1-c1ncc2c(N3CCNCC3)nc(OCC34CCCN3CCC4)cc2n1 [Compound 22]
14 | < 500 | ≤ 500 | C#Cc1cccc2cc(O)cc(-c3nc(C)c4c(N5CC6CCC(C5)N6)nc(OC[C@@]56CCCN5C[C@H](F)C6)nc4c3F)c12 [Compound 103]
15 | < 500 | ≤ 500 | C#Cc1c(F)ccc2cc(O)cc(-c3nc(C(F)F)c4c(N5CC6CCC(C5)N6)nc(OC[C@@]56CCCN5C[C@H](F)C6)nc4c3F)c12 [Compound 165]
16 | 500 to 5000 |  | Oc1cc(-c2nc(O)c3c(N4CC5CCC(C4)N5)nc(OC[C@@]45CCCN4C[C@H](F)C5)nc3c2F)c2c(Cl)c(F)ccc2c1 [Compound 174]
17 | < 500 |  | C#Cc1c(F)ccc2cc(O)cc(-c3nc(OC(C)C)c4c(N5CC6CCC(C5)N6)nc(OC[C@]56CCCN5[C@H](COC(=O)N(C)C)CC6)nc4c3F)c12 [Compound 226]
18 | < 500 |  | C#Cc1c(F)ccc2c(F)c(O)cc(-c3nc(C)c4c(N5CC6CCC(C5)N6)nc(OC[C@@]56CCCN5C[C@H](F)C6)nc4c3F)c12 [Compound 143]
19 | < 500 |  | C#Cc1c(F)ccc2cc(O)cc(-c3nc(OC)c4c(N5CC6CCC(C5)N6)nc(OC[C@]56CCCN5[C@@H](COC(=O)N(C)CCCCCCCCCCCCCCCC)CC6)nc4c3F)c12 [Compound 243]
20 | < 500 |  | C#Cc1c(F)ccc2cc(O)cc(-c3nc(OCC)c4c(N5CC6CCC(C5)O6)nc(OC[C@@]56CCCN5C[C@H](F)C6)nc4c3F)c12 [Compound 169]
21 | < 500 |  | C#Cc1c(F)ccc2cc(O)cc(-c3nc(OC(C)C)c4c(N5CC6CCC(C5)N6)nc(C)nc4c3F)c12 [Compound 218]
22 | < 500 |  | C#Cc1c(F)ccc2cc(O)cc(-c3nc(C4CC4)c4c(N5CC6CCC(C5)N6)ncnc4c3F)c12 [Compound 205]
23 | < 500 |  | C#Cc1c(F)ccc2cc(O)cc(-c3nc(OC(C)C)c4c(N5CC6CCC(C5)N6)nc(OCC5(CN6CCN(C)CC6)CC5)nc4c3F)c12 [Compound 230]
24 | < 500 |  | C#Cc1c(F)ccc2cc(O)cc(-c3nc(OC)c4c(N5CC6CCC(C5)N6)nc(OCC5(CN6CCC6)CC5)nc4c3F)c12 [Compound 184]
25 | < 500 |  | C#Cc1c(F)ccc2cc(O)cc(-c3nc(C(F)(F)F)c4c(N5CC6CCC(C5)N6)nc(OC[C@@]56CCCN5C[C@H](F)C6)nc4c3F)c12 [Compound 170]

Row | GI50 (Ba/F3_KRAS^G12D cells) [nM] | Kd [1] [nM] | SMILES
26 | < 500 |  | C#Cc1c(F)ccc2cc(O)cc(-c3nc(OC)c4c(N5CC6CCC(C5)N6)nc(OC[C@]56CCCN5[C@H](COC(=O)N(C)C)CC6)nc4c3F)c12 [Compound 178]
27 | < 500 |  | C#Cc1c(F)ccc2c(F)c(N)cc(-c3nc(OC(C)C)c4c(N5CC6CCC(C5)N6)nc(OC[C@@]56CCCN5C[C@H](F)C6)nc4c3F)c12 [Compound 202]
28 | < 500 |  | C#Cc1c(F)ccc2cc(O)cc(-c3nc(OC(C)C)c4c(N5CCNC(CF)C5)nc(OC[C@@]56CCCN5C[C@H](F)C6)nc4c3F)c12 (some centres unmarked) [Compound 242]
29 | 500 to 5000 |  | C#Cc1c(F)ccc2cccc(-c3nc(OC(C)C)c4c(N5CC6CCC(C5)N6)nc(OC[C@@H]5C[C@@H](OC(=O)N(C)CCCCCCCCCCCCCCCC)CN5C)nc4c3F)c12 [Compound 246]
30 | < 500 |  | C#Cc1c(F)ccc2cccc(-c3nc(OC(C)C)c4c(N5CC6CCC(C5)N6)nc(OC[C@]56CCCN5[C@@H](COC(=O)N(C)C)CC6)nc4c3F)c12 [Compound 222]
31 | < 500 |  | C#Cc1c(F)ccc2cc(N)cc(-c3nc(OC)c4c(N5CC6CCC(C5)N6)nc(OC[C@@H]5C[C@H](F)CN5C)nc4c3F)c12 [Compound 209]
32 | < 500 |  | CCOc1nc(-c2cc(N)cc(F)c2C(F)(F)F)c(F)c2nc(OC[C@@]34CCCN3C[C@H](F)C4)nc(N3CC4CCC(C3)N4)c12 [Compound 213]
33 | 500 to 5000 |  | CCOc1nc(-c2cc(O)cc(F)c2C(F)(F)F)c(F)c2nc(OC[C@@]34CCCN3C[C@H](F)C4)nc(N3CC4CCC(C3)N4)c12 [Compound 214]
34 | < 500 |  | C#Cc1c(F)ccc2cc(N)cc(-c3nc(OC(C)C)c4c(N5CC6CCC(C5)N6)nc(OC[C@@]56CCCN5C[C@H](F)C6)nc4c3F)c12 [Compound 200]
35 | < 500 |  | C#Cc1c(F)ccc2cc(O)cc(-c3c(F)c4nc(OC[C@@]56CCCN5C[C@H](F)C6)nc(N5CC6CCC(C5)N6)c4c4ncnn34)c12 (single isomer, unassigned) [Compound 156]
36 | < 500 |  | C#Cc1c(F)ccc2cc(O)cc(-c3nc(OC(C)C)c4c(N5CC6CCC(C5)N6)nc(OCCOC)nc4c3F)c12 [Compound 192]
37 | < 500 |  | C#Cc1c(F)ccc2cc(O)cc(-c3nc(OCC)c4c(N5CC6CCC(C5)N6)nc(OC[C@]56CCCN5[C@@H](COC(=O)N(C)C)CC6)nc4c3F)c12 [Compound 233]
38 | < 500 |  | C#Cc1c(F)ccc2cc(N)cc(-c3nc(Cl)c4c(N5CC6CCC(C5)N6)nc(OC[C@@]56CCCN5C[C@H](F)C6)nc4c3F)c12 [Compound 158]
39 | 500 to 5000 |  | C#Cc1c(F)ccc2cc(O)cc(-c3nc(OC(C)C)c4c(N5CC6CCC(C5)N6)nc(NC)nc4c3F)c12 [Compound 186]
40 | < 500 |  | C#Cc1c(F)ccc2cccc(-c3nc(OCC)c4c(N5CC6CCC(C5)N6)nc(OC[C@@]56CCCN5C[C@H](F)C6)nc4c3F)c12 [Compound 168]
41 | < 500 |  | C#Cc1c(F)ccc2cc(O)cc(-c3nc(OC)c4c(N5CC6CCC(C5)N6)nc(OCC5(CN6CCCC6)CC5)nc4c3F)c12 [Compound 183]
42 | < 500 |  | C#Cc1c(F)ccc2cc(O)cc(-c3nc(OC)c4c(N5CC6CCC(C5)N6)ncnc4c3F)c12 [Compound 161]
43 | < 500 |  | C#Cc1c(F)ccc2cc(O)cc(-c3nc(OC(C)C)c4c(N5CC6CCC(C5)N6)nc(OCC5(CN6CCN(C(C)=O)CC6)CC5)nc4c3F)c12 [Compound 231]
44 | < 500 |  | Cc1cc(-c2nc(OC(C)C)c3c(N4CC5CCC(C4)N5)nc(OC[C@@]45CCCN4C[C@H](F)C5)nc3c2F)c(C(F)(F)F)c(N)n1 [Compound 199]
45 | 500 to 5000 |  | CNC(=O)COc1nc(-c2cc(O)cc3ccccc23)c(F)c2nc(OC[C@@]34CCCN3C[C@H](F)C4)nc(N3CC4CCC(C3)N4)c12 [Compound 145]
46 | < 500 |  | C#Cc1c(F)ccc2cccc(-c3nc(OCC)c4c(N5CC6CCC(C5)N6)nc(OC[C@]56CCCN5[C@@H](COC(=O)N(C)C)CC6)nc4c3F)c12 [Compound 236]
47 | < 500 |  | C#Cc1c(F)ccc2cc(O)cc(-c3nc(OC)c4c(N5CC6CCC(C5)N6)nc(OCC5(CN6CCOCC6)CC5)nc4c3F)c12 [Compound 185]
48 | < 500 |  | C#Cc1c(F)ccc2cc(O)cc(-c3nc(OC)c4c(N5CC6CCC(C5)N6)nc(OC[C@@]56CCCN5[C@@H](COC(=O)N(C)C)CC6)nc4c3F)c12 [Compound 177]
49 | < 500 |  | C#Cc1c(F)ccc2cc(O)cc(-c3nc(OC(C)C)c4c(N5CCNC6(CC6)C5)nc(OC[C@@]56CCCN5C[C@H](F)C6)nc4c3F)c12 [Compound 241]
50 | < 500 |  | C#Cc1c(F)ccc2cccc(-c3nc(OC(C)C)c4c(N5CC6CCC(C5)N6)nc(OC[C@]56CCCN5[C@@H](CO)CC6)nc4c3F)c12 [Compound 238]

Reference: patent publication US20230357233A1, “HETEROARYL COMPOUNDS, PREPARATION METHODS AND USES THEREOF” (INVENTISBIO CO., LTD., priority 2020, published 2023)
